Data from patent EP1637537A1, “New medicaments” (Riemser Arzneimittel AG, priority 2004, dated 2006).

Columns and labels:
[1] = system: Würgereiz; assay: Gag reflex inhibition after gag stimulus, clinical study; format: in vivo, männlichen und weiblichen gesunden Probanden; conditions: oral 100 mg as Vagantin® film tablet or fresh solution; tested immediately after application and 1, 2 and 6 hours later (Figur 2)
Method: (§1) In einer klinischen Studie an 10 männlichen und weiblichen gesunden Probanden im Alter zwischen 20 und 60 Jahren wurde die Ausschaltung bzw. Verzögerung des Würgereizes und der Verminderung des Speichelflusses bei ärztlichen oder zahnärztlichen Manipulationen im Rachenraum geprüft.
(§2) Die obengenannte Filmtablettenformulierung bzw. die dort genannte Lösung von 100 mg Methantheliniumbromid in Wasser als Frischlösung wurde auch hier verwendet.
(§3) Nach Würgereizstimulus wurde die Würgereflexhemmung unmittelbar nach Applikation, sowie im Abstand von 1, 2 und 6 Stunden danach geprüft. Gleichzeitig wurde die Speichelflußrate vor und nach Einnahme von Methantheliniumbromid in Form von Vagantin® gemessen. […] Die Ergebnisse sind in den Figuren. 2 und 3 dargestellt.

[2] = Serum/plasma concentration-time profile after oral dosing in volunteers; format: in vivo, männliche und weiblichen Probanden
Method: Die Studie wurde an 12 männliche und weiblichen Probanden im Alter zwischen 18 und 45 Jahren durchgeführt. Der Wirkstoff (Methantheliniumbromid) wurden oral als Filmtablette oder als Lösung appliziert. Zu unterschiedlichen Zeiten nach der Dosierung wurden Messungen vorgenommen und Laborwerte zur Charakterisierung der Wirkung festgestellt.
Im Beispiel wurden 100 mg Wirkstoff als Filmtablette der folgenden Formulierung eingesetzt: • ◆ 50,0 mg Methantheliniumbromid • ◆ 30,0 mg Maisstärke • ◆ 18,75 mg Polyvinylprrolidon • ◆ 4,0 mg hochdisperses Siliziumdioxid • ◆ 146,25 mg Lactosemonohydrat • ◆ 1,0 mg Magnesiumsterarat • ◆ 1,0 mg Hydroxypropylmethylcellulose • ◆ 39,38 mg Talcum • ◆ 6,5 mg Gummi arabicum • ◆ 15,53 mg Calciumcarbonat • ◆ 7,73 mg Titandioxid • ◆ 6,58 mg Weißer Ton • ◆ 0,65 mg Macogol 6000 • ◆ 61,63 mg Saccharose • ◆ 1,0 mg E 100 • ◆ 0,1 mg Carnauba Wachs
Es ist auch möglich, eine reine Lösung von 100 mg Methantheliniumbromid in Wasser als Frischlösung herzustellen. Dabei empfiehlt es sich, den bitteren Geschmack des Wirkstoffes durch angenehme Geschmackskorrigentien zu überdecken. Hier bieten sich z. B. einige Spritzer eines Mundwassers mit Pfefferminzgeschmack an.
Ausdruck dafür ist das in der Figur 1 dargestellte Konzentrations-Zeit-Profil. Zu beachten ist eine deutliche individuelle Schwankungsbreite in der Serumkonzentration nach Zuführung beider Applikationsformen. […]

[3] = system: Speichelfluß; assay: Saliva flow rate before and after intake, clinical study; format: in vivo, männlichen und weiblichen gesunden Probanden; conditions: oral 100 mg as Vagantin®; before and after intake (Figur 3)
Method: as §1, §2, §3
Figur 3 zeigt die Speichelsekretion in Abhängigkeit von der Methanthelinkonzentration im Plasma nach oraler Gabe von 100 mg Wirkstoff an gesunde Freiwillige. Ferner kann von einem Methanthelinbromidgehalt im Plasma von etwa 5 ng/ml über einen Zweitraum von 8 Stunden ausgegangen werden (Figur 1).

- concentration at 8 h ([2]; human, plasma, oral, 100 mg, over a period of 8 hours (Figur 1), read-out: Methanthelinbromidgehalt im Plasma): ~5 ng/mL
SMILES: CC[N+](C)(CC)CCOC(=O)C1c2ccccc2Oc2ccccc21.[Br-] [Methantheliniumbromid, N,N-Diethyl-N-methyl-2-(xanthenylcarbonyloxy)ethylammoniumbromid]
- Würgereflexhemmung [1]: deutliche Verzögerung des Würgereizesreflexes
- Reaktion (Konzentrations-Zeit-Profil, Serumkonzentration) ([2]; oral drinking solution compared with film tablet, 100 mg (Figur 1)): etwas stärkere Reaktion als die Filmtablette
- Speichelflußrate [3]: deutliche Reduzierung des Speichelflusses
